Experimental data taken from ChEMBL document CHEMBL1201862, “PubChem BioAssay data set” (2004).
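These data come from cells grown in 96-well plates and exposed to compound for 48 hours at five concentrations. GI50 is the concentration that inhibits growth by half.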 The source made the active and inactive calls. No stated cut-off is given here; in the data, active = GI50 up to about 1.1 µM and inactive = higher.

Legend:
Assay in all cases: growth of human tumour cells (NCI), 48 h
[1] = tested on: BT-549
[2] = tested on: 786-0
[3] = tested on: DMS-273
[4] = tested on: HOP-18
[5] = tested on: KM-20L2
[6] = tested on: XF498
[7] = tested on: LXFL 529
[8] = tested on: RXF 631
[9] = tested on: SNB-78

SMILES	GI50 [1]	GI50 [2]	GI50 [3]	GI50 [4]	GI50 [5]	GI50 [6]	GI50 [7]	GI50 [8]	GI50 [9]
NC(CCOCCP(=O)(O)CCC1C=CC=CC1)C(=O)O (centres undefined)	> 100 µM (inactive)								
CC(=O)NC1CC(C(C)(C)NC(C)=O)CC=C1C (centres undefined)	> 100 µM (inactive)	> 100 µM (inactive)							
CC1C(NNC(N)=O)Oc2cc3c(cc2C1c1ccccc1O)OCO3 (centres undefined)	52.6 µM (inactive)								
C=C1CC(OC)(C(O)C(=O)N[C@H]2OCO[C@H]3C2O[C@H](C[C@@H](CO)OC)C(C)(C)C3OC)O[C@H](C)[C@@H]1C (some centres undefined)			< 0.00931 µM (active)	< 0.00931 µM (active)	< 0.00931 µM (active)	< 0.00931 µM (active)			
O=C(Nc1ccc([N+](=O)[O-])cc1[N+](=O)[O-])C(=O)C(C(=O)c1ccc2ccccc2c1)C1OC(=O)c2ccccc21 (centres undefined)			10.2 µM (inactive)		25.1 µM (inactive)		10.5 µM (inactive)	16.6 µM (inactive)	21.4 µM (inactive)
O=C(Nc1ccc(F)cc1)c1cc2ccc(O)cc2o/c1=N\c1ccccc1F	14.8 µM (inactive)	24.4 µM (inactive)							
O=C(/C=C/CC(O)(c1ccccc1)c1ccccc1)Nc1ccccc1Cl					> 100 µM (inactive)		> 100 µM (inactive)		
O=C1C(=O)c2cc([N+](=O)[O-])ccc2-c2ccc([N+](=O)[O-])cc21			0.397 µM (active)	1.71 µM (inactive)	4.88 µM (inactive)	1.23 µM (inactive)			0.698 µM (active)
O=C1C=CC2(O[C@@H](Cc3ccccc3)[C@H](Cc3ccccc3)O2)C(SC(=O)c2ccccc2)C1 (some centres undefined)	0.34 µM (active)	0.152 µM (active)							
Cc1c2[nH]c3ccc(Br)cc3c2c(C)c2nccc(O)c12		11.1 µM (inactive)	12.2 µM (inactive)	10.8 µM (inactive)		16.1 µM (inactive)			16.2 µM (inactive)
Cc1ccc(S(=O)(=O)NNC2Oc3cc4c(cc3C(c3ccccc3O)C2C)OCO4)cc1 (centres undefined)	13 µM (inactive)								
O=C(CCC(=O)Nc1ccc(Cl)c(Cl)c1)CC(=O)c1ccc(Br)cc1		> 100 µM (inactive)		> 100 µM (inactive)	> 100 µM (inactive)	> 100 µM (inactive)	61.8 µM (inactive)	> 100 µM (inactive)	> 100 µM (inactive)
CC(=O)Nc1ccc(C2=N/C(=C\c3ccc(Cl)c(Cl)c3)C(=O)O2)cc1			80.4 µM (inactive)	> 100 µM (inactive)	> 100 µM (inactive)	57.5 µM (inactive)	> 100 µM (inactive)	> 100 µM (inactive)	> 100 µM (inactive)
O=C1C(=CNC(=S)c2ccccc2)C(=O)c2ccccc21	28.1 µM (inactive)	27.5 µM (inactive)							
Nc1c(C(=O)Nc2ccc(C3=NCCN3)cc2)cccc1C(=O)Nc1ccc(C2=NCCN2)cc1			> 100 µM (inactive)	> 100 µM (inactive)	> 100 µM (inactive)	> 100 µM (inactive)			> 83.8 µM (inactive)
COc1cc2c(c(OC)c1OC)-c1[nH]ncc1CC2		> 100 µM (inactive)	> 100 µM (inactive)	> 100 µM (inactive)	> 100 µM (inactive)	> 100 µM (inactive)	> 100 µM (inactive)		> 100 µM (inactive)
c1ccc(CN2CCC3(CC2)SSC2(CCN(Cc4ccccc4)CC2)SS3)cc1	> 100 µM (inactive)	> 100 µM (inactive)							
Cc1cc2nc3c(C)c4ccccc4c(C)n3c2cc1C	6.07 µM (inactive)	1.24 µM (inactive)							
CN(c1ccccc1)c1c(-c2ccccc2)c(=O)oc2c1ccc1occc12			> 100 µM (inactive)	> 100 µM (inactive)					> 100 µM (inactive)
NC1C2C=CC(C2)C1C(=O)O (centres undefined)	> 100 µM (inactive)	> 100 µM (inactive)							
Cn1c(=O)nc2n(-c3ccc(Cl)cc3Cl)c3ccccc3nc-2c1=O				11 µM (inactive)	0.861 µM (active)	0.262 µM (active)			14.6 µM (inactive)
COc1ccccc1N1C(Cl)C(=O)C1c1c[nH]c2ccccc12 (centres undefined)					> 100 µM (inactive)	> 100 µM (inactive)	> 100 µM (inactive)		
COc1cc2c(cc1Oc1c(Oc3c(O)c(OC)cc4c3C(CC(C)C)N(C)CC4)c(OC)cc3c1C(CC(C)C)N(C)CC3)C(CC(C)C)N(C)CC2 (centres undefined)			1.18 µM (inactive)	1.67 µM (inactive)	0.698 µM (active)				1.13 µM (inactive)
O=C1CC2(CCC(O)(c3ccco3)C(C(=O)c3ccco3)C2)C(=O)c2ccccc2N1 (centres undefined)	92 µM (inactive)								
